Data on one molecule can be found in patent US20210238224A1, “METHOD OF CONSTRUCTING PROTAC BY USING DOUBLE TARGETS” (THE FIRST AFFILIATED HOSPITAL OF SUN YAT-SEN UNIVERSITY, priority 2018, published 2021).

The assay deals with T1, Smad3 (Rattus norvegicus, UniProt P84025).
T1 construct: endogenous in cells; host or cells: NRK49F rat kidney fibroblasts, stimulated with TGF-β1
Briefly: Western blot of Smad3 degradation in TGF-β1-stimulated rat kidney fibroblasts. In kind it is cell-based. Particulars: NRK49F cells, 48 hours, FIGS. 6(A), 6(B). The method, then:
Rat kidney fibroblasts (NRK49F cell line) are cultured in vitro, passage 1:3 or 1:4 to six-well plates before cell fusion, and are divided into a TGF-β1 control group (TGF-β1 10 ng/ml), a PROTAC-PEG action group (TGF-β1 10 ng/ml+PROTAC-PEG of different concentrations: 1, 5, 25, 125 nM), and a PROTAC-butanedioic acid action group (TGF-β1 10 ng/ml+PROTAC-butanedioic acid of different concentrations: 1, 5, 25, 125 nM); the cells are lysed after 48 hours of culture and are used for Western blot.
(Immunoblotting shows a protein as a band on a membrane.)

T1 sequence (P84025 whole entry): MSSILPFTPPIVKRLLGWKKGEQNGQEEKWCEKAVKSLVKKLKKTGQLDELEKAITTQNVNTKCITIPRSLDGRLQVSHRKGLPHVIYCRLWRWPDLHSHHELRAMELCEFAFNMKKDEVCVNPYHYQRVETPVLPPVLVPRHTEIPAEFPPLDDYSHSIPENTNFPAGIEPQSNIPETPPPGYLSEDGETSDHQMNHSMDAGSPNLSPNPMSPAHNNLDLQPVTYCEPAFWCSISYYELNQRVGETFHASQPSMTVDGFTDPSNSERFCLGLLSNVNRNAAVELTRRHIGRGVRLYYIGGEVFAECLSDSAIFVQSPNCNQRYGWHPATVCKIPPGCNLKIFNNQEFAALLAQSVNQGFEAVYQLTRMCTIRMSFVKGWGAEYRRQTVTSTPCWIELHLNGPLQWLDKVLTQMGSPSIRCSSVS

For `C[C@@H](NC(=O)[C@@H]1C[C@@H](O)CN1C(=O)[C@@H](NC(=O)CCC(=O)NC(c1cccnc1)c1cc2ccccc2o1)C(C)(C)C)c1ccc(-c2cc(N)cs2)cc1` (stereo partly drawn) [PROTAC-butanedioic acid], for the setting “TGF-β1 10 ng/ml + PROTAC 1, 5, 25, 125 nM”, the “degradation of target protein Smad3 (Western blot)” value is “degrades the target protein Smad3 in a concentration-dependent manner”. Further, for the setting “TGF-β1 10 ng/ml”, the “Smad3-degrading activity compared with PROTAC-PEG” value is given as “significantly higher than that of PROTAC-PEG” and the “effective concentration for Smad3 degradation” value came to 25 nM.
